Legend:
Assay in all cases: relative viability (nuclei count vs DMSO), 5 days (fraction); higher = more cells survive
NCI-H3122 = tested on: NCI-H3122
In short: (§1)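 Cells from lung cancer lines were seeded into 1536-well plates and, one day later, dosed by pin tool. Treatments were either a single drug or a fixed dose of an anchor drug with five library-drug doses (not always all listed) in √10 steps. After 5 days, nuclei were stained in a one-step fixation (final 0.05% Triton X-100, 1% formaldehyde, 1 ug/ml Hoechst) and counted on 4× images, and relative viability is the treated-to-vehicle nuclei ratio, as the median of duplicate plates.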

NCI-H1666 = tested on: NCI-H1666
In short: as §1

LXF-289 = tested on: LXF-289
In short: as §1

NCI-H1915 = tested on: NCI-H1915
In short: as §1

NCI-H322M = tested on: NCI-H322M
In short: as §1

NCI-H358 = tested on: NCI-H358
In short: as §1

HCC-15 = tested on: HCC-15
In short: as §1

NCI-H1975 = tested on: NCI-H1975
In short: as §1

EMC-BAC-2 = tested on: EMC-BAC-2
In short: as §1

EPLC-272H = tested on: EPLC-272H
In short: as §1

HOP-62 = tested on: HOP-62
In short: as §1

ABC-1 = tested on: ABC-1
In short: as §1

NCI-H1993 = tested on: NCI-H1993
In short: as §1

CAL-12T = tested on: CAL-12T
In short: as §1

COR-L 105 = tested on: COR-L 105
In short: as §1

NCI-H2085 = tested on: NCI-H2085
In short: as §1

NCI-H2023 = tested on: NCI-H2023
In short: as §1

NCI-H2126 = tested on: NCI-H2126
In short: as §1

NCI-H1755 = tested on: NCI-H1755
In short: as §1

UMC-11 = tested on: UMC-11
In short: as §1

HCC-78 = tested on: HCC-78
In short: as §1

## O=C(O)c1ccc(-c2c[nH]c3ncc(-c4ccccc4)cc23)cc1C1CCCC1 + CS(=O)(=O)CCNCc1ccc(-c2ccc3ncnc(Nc4ccc(OCc5cccc(F)c5)c(Cl)c4)c3c2)o1 [Lapatinib] (partner 2 µM)
NCI-H3122; first compound 0.04 µM
  relative viability: 1.02
NCI-H3122; first compound 0.1265 µM
  relative viability: 1.01
NCI-H3122; first compound 0.4 µM
  relative viability: 0.974
NCI-H3122; first compound 1.265 µM
  relative viability: 0.857
NCI-H1666; first compound 0.04 µM
  relative viability: 0.673
NCI-H1666; first compound 0.1265 µM
  relative viability: 0.522
NCI-H1666; first compound 0.4 µM
  relative viability: 0.796
NCI-H1666; first compound 1.265 µM
  relative viability: 0.344
LXF-289; first compound 0.04 µM
  relative viability: 0.96
LXF-289; first compound 0.1265 µM
  relative viability: 0.936
LXF-289; first compound 0.4 µM
  relative viability: 0.822
LXF-289; first compound 1.265 µM
  relative viability: 0.619
NCI-H1915; first compound 0.04 µM
  relative viability: 1.05
NCI-H1915; first compound 0.1265 µM
  relative viability: 1.03
NCI-H1915; first compound 0.4 µM
  relative viability: 0.972
NCI-H1915; first compound 1.265 µM
  relative viability: 0.743
NCI-H322M; first compound 0.04 µM
  relative viability: 0.589
NCI-H322M; first compound 0.1265 µM
  relative viability: 0.618
NCI-H322M; first compound 0.4 µM
  relative viability: 0.727
NCI-H322M; first compound 1.265 µM
  relative viability: 0.55
NCI-H358; first compound 0.04 µM
  relative viability: 0.438
NCI-H358; first compound 0.1265 µM
  relative viability: 0.447
NCI-H358; first compound 0.4 µM
  relative viability: 0.448
NCI-H358; first compound 1.265 µM
  relative viability: 0.323
HCC-15; first compound 0.04 µM
  relative viability: 0.882
HCC-15; first compound 0.1265 µM
  relative viability: 0.987
HCC-15; first compound 0.4 µM
  relative viability: 0.838
HCC-15; first compound 1.265 µM
  relative viability: 0.551
NCI-H1975; first compound 0.04 µM
  relative viability: 0.873
NCI-H1975; first compound 0.1265 µM
  relative viability: 1.02
NCI-H1975; first compound 0.4 µM
  relative viability: 1
NCI-H1975; first compound 1.265 µM
  relative viability: 0.49
EMC-BAC-2; first compound 0.04 µM
  relative viability: 0.848
EMC-BAC-2; first compound 0.1265 µM
  relative viability: 1.03
EMC-BAC-2; first compound 0.4 µM
  relative viability: 0.916
EMC-BAC-2; first compound 1.265 µM
  relative viability: 0.946
EPLC-272H; first compound 0.04 µM
  relative viability: 1.16
EPLC-272H; first compound 0.1265 µM
  relative viability: 1.01
EPLC-272H; first compound 0.4 µM
  relative viability: 0.898
EPLC-272H; first compound 1.265 µM
  relative viability: 0.877
HOP-62; first compound 0.04 µM
  relative viability: 1.23
HOP-62; first compound 0.1265 µM
  relative viability: 0.993
HOP-62; first compound 0.4 µM
  relative viability: 1.1
HOP-62; first compound 1.265 µM
  relative viability: 0.897
ABC-1; first compound 0.04 µM
  relative viability: 1.05
ABC-1; first compound 0.1265 µM
  relative viability: 1.08
ABC-1; first compound 0.4 µM
  relative viability: 1.09
ABC-1; first compound 1.265 µM
  relative viability: 1.52
NCI-H1993; first compound 0.04 µM
  relative viability: 0.927
NCI-H1993; first compound 0.4 µM
  relative viability: 0.789
NCI-H1993; first compound 1.265 µM
  relative viability: 0.835
CAL-12T; first compound 0.04 µM
  relative viability: 0.788
CAL-12T; first compound 0.1265 µM
  relative viability: 0.908
CAL-12T; first compound 0.4 µM
  relative viability: 0.705
CAL-12T; first compound 1.265 µM
  relative viability: 0.423
COR-L 105; first compound 0.04 µM
  relative viability: 0.363
COR-L 105; first compound 0.1265 µM
  relative viability: 0.401
COR-L 105; first compound 0.4 µM
  relative viability: 0.347
COR-L 105; first compound 1.265 µM
  relative viability: 0.371
NCI-H2085; first compound 0.04 µM
  relative viability: 0.762
NCI-H2085; first compound 0.1265 µM
  relative viability: 0.947
NCI-H2085; first compound 0.4 µM
  relative viability: 0.799
NCI-H2085; first compound 1.265 µM
  relative viability: 0.508
NCI-H2023; first compound 0.04 µM
  relative viability: 0.915
NCI-H2023; first compound 0.1265 µM
  relative viability: 0.938
NCI-H2023; first compound 0.4 µM
  relative viability: 0.779
NCI-H2023; first compound 1.265 µM
  relative viability: 0.511
NCI-H2126; first compound 0.04 µM
  relative viability: 0.764
NCI-H2126; first compound 0.1265 µM
  relative viability: 0.81
NCI-H2126; first compound 0.4 µM
  relative viability: 0.734
NCI-H2126; first compound 1.265 µM
  relative viability: 0.741
NCI-H1755; first compound 0.04 µM
  relative viability: 1.02
NCI-H1755; first compound 0.1265 µM
  relative viability: 1.11
NCI-H1755; first compound 0.4 µM
  relative viability: 1.02
NCI-H1755; first compound 1.265 µM
  relative viability: 0.967
UMC-11; first compound 0.04 µM
  relative viability: 0.994
UMC-11; first compound 0.1265 µM
  relative viability: 1.09
UMC-11; first compound 0.4 µM
  relative viability: 1.06
UMC-11; first compound 1.265 µM
  relative viability: 1.01
HCC-78; first compound 0.04 µM
  relative viability: 0.595
HCC-78; first compound 0.1265 µM
  relative viability: 1.25
HCC-78; first compound 0.4 µM
  relative viability: 0.979
HCC-78; first compound 1.265 µM
  relative viability: 0.64

From the supplement of paper PMC10307832
